Values of other authors as cited in publication PMC4258517 (Antiviral research, 2014).

Tests used:
SV40 = settings: 100 μM; ref Wright et al., 2009
BKV = settings: HK2 cells, 15 μM; ref Wright et al., 2009
patients with PML = settings: trial prematurely terminated, ref Clifford et al., 2013
[1] = tested on: SV40 large T antigen ATPase; settings: ref Seguin et al., 2012b
[2] = read-out: MTS assay IC50; cytotoxicity; ref Seguin et al., 2012b

In the case of CC1=C(C(=O)OCc2ccccc2)C(c2ccc(-c3ccccc3)cc2)NC(=O)N1CCCCCC(=O)O (stereo not shown) [MAL2-11B], the “reduction in SV40 DNA replication” value (SV40) is given as “fivefold reduction” and the “reduction of BKV viral load” value (BKV) is given as “one log reduction”.
In the case of OC(c1cc(C(F)(F)F)nc2c(C(F)(F)F)cccc12)C1CCCCN1 (stereo not shown) [Mefloquine], the clinical trial outcome (patients with PML) is given as “lack of efficacy”.
In the case of Oc1c(Cl)cc(Cl)cc1Sc1cc(Cl)cc(Cl)c1O [bithionol], the “mechanism of inhibition on SV40 protein” value [1] is given as “competitive” and the IC50 [2] is given as 68 µM.
In the case of Oc1c(Cl)cc(Cl)c(Cl)c1Cc1c(O)c(Cl)cc(Cl)c1Cl [hexachlorophene], the “mechanism of inhibition on SV40 protein” value [1] is given as “competitive” and the IC50 [2] is given as 55 µM.
